In patent publication US9499553B2 (CHUGAI SEIYAKU KABUSHIKI KAISHA, priority 2013, dated 2016):
Where two headings read alike, the source gives them in different places.

Columns and labels:
human NaPi-IIb = target: T1, human NaPi-IIb (Homo sapiens, UniProt O95436); assay: Inhibitory effect on 33PO4 uptake into human NaPi-IIb-expressing CHO cells; assay type: cell-based
T1 construct: expressed in transfected cells
T1 sequence (O95436 1-690): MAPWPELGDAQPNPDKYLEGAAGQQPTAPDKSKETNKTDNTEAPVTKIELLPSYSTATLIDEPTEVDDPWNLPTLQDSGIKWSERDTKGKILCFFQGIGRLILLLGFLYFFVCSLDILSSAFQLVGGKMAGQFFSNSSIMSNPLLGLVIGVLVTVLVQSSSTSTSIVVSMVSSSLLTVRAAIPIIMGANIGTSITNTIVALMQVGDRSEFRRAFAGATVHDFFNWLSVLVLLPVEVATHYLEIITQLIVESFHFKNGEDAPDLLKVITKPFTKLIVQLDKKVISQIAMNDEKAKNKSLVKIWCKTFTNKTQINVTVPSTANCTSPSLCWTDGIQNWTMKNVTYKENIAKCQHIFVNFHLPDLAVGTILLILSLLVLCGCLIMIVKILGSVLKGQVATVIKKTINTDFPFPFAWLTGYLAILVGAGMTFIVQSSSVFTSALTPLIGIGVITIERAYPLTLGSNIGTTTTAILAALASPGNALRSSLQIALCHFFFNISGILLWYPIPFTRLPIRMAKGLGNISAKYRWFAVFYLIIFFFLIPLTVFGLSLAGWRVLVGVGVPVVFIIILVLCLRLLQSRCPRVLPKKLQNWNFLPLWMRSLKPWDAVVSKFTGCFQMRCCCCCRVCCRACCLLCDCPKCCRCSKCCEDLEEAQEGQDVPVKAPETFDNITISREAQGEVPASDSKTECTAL
Procedure, shortened: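 Stable human NaPi-IIb CHO line (G418-selected), plated and cultured overnight; ³³PO4 added in buffer A and uptake run at room temperature. Cells washed with ice-cold buffer A, then uptake counted by liquid scintillation.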

[1] = tested on: rat small-intestinal brush border membrane vesicles; assay: Inhibitory effect on 33PO4 uptake into rat small-intestinal brush border membrane vesicles (rapid filtration method); assay type: biochemical; conditions: 1 μM test compound; 33PO4 uptake into rat small-intestinal BBMVs, reacted for 60 seconds
Protocol: Test Example 1: Inhibitory Effect on ^33PO4 Uptake into Rat Small-Intestinal Brush Border Membrane Vesicles Brush border membrane vesicles (BBMVs) were prepared using the upper region of the small intestine of each Wistar female rat (4-5 weeks old). The preparation of BBMVs was performed according to the method of Murer et al. (Murer […]. Sodium/proton antiport in brush-border-membrane vesicles isolated from rat small intestine and kidney. 1976. J Am Soc Nephrol. 1998 January; 9 (1): 143-50). The ^33PO4 transport activity of the small-intestinal BBMVs was determined by the rapid filtration method. […] Then, ice-cold buffer C (110 mM NaCl, 1 mM KH2PO4, and 10 mM HEPES (pH 7.5)) was added to each reaction mixture, which was immediately suction-filtered through a Millipore filter. The filter was washed with buffer C, and each sample was then dissolved in a liquid scintillator. The amount of ^33PO4 uptake into BBMVs was measured using a liquid scintillation counter.

[2] = read-out: IC50 against 33PO4 uptake into human NaPi-IIb-expressing cells

Row | Compound | IC50 (human NaPi-IIb; read-out: IC50) [µM] | IC50 (human NaPi-IIb; [2]) [µM] | Rate of uptake inhibition (%) (1 μM) [1]
1 | C[C@]12CCCN1N(Cc1cccc(F)c1F)C(=O)C(C(=O)Nc1ccc(Br)c(Cl)c1)=C2O [Example 31] | – | – | 76
2 | C[C@]12CCCN1N(Cc1cccc(F)c1F)C(=O)C(C(=O)Nc1ccc(Br)c(F)c1F)=C2O [Example 32] | 2.8 | – | 73
3 | C[C@]12CCCN1N(Cc1cccc(F)c1F)C(=O)C(C(=O)Nc1cc(Br)c(Br)cc1F)=C2O [Example 33] | 6 | – | 77
4 | C[C@]12CCCN1N(Cc1cccc(F)c1)C(=O)C(C(=O)Nc1ccc(C(F)(F)F)cc1-c1cc(C(F)(F)F)ncn1)=C2O [Example 34] | 7 | – | 99
5 | C[C@]12CCCN1N(Cc1cccc(F)c1)C(=O)C(C(=O)Nc1ccc(Br)c(F)c1)=C2O [Example 35] | 12.6 | – | 79
6 | C[C@]12CCCN1N(Cc1cccc(F)c1Br)C(=O)C(C(=O)Nc1ccc(Br)c(F)c1)=C2O [Example 37] | 3.7 | – | 89
7 | C[C@]12CCCN1N(Cc1cccc(F)c1Br)C(=O)C(C(=O)Nc1ccc(Cl)cc1F)=C2O [Example 38] | 6.7 | – | 90
8 | C[C@]12CCCN1N(Cc1cccc(F)c1Br)C(=O)C(C(=O)Nc1ccc(Br)c(C#N)c1)=C2O [Example 40] | 6.5 | – | 87
9 | C[C@]12CCCN1N(Cc1cccc(F)c1Br)C(=O)C(C(=O)Nc1ccc(Br)c(Cl)c1)=C2O [Example 41] | 6.6 | – | 84
10 | C[C@]12CCCN1N(Cc1cccc(F)c1Br)C(=O)C(C(=O)Nc1ccc(Br)c(C(F)(F)F)c1)=C2O [Example 42] | 5 | – | 67
11 | COc1cccc(-c2cc(C(F)(F)F)ccc2NC(=O)C2=C(O)[C@@]3(C)CCCN3N(Cc3cccc(F)c3F)C2=O)c1OC [Example 44] | – | – | 94
12 | C[C@]12CCCN1N(Cc1cccc(F)c1F)C(=O)C(C(=O)Nc1ccc(C(F)(F)F)cc1-c1cc(C#N)ccn1)=C2O [Example 45] | 13 | – | 73
13 | C[C@]12CCCN1N(Cc1cccc(F)c1F)C(=O)C(C(=O)Nc1ccc(C(F)(F)F)cc1-c1cccc(C#N)c1F)=C2O [Example 46] | 14.1 | – | 71
14 | Cc1c(-c2cc(C(F)(F)F)ccc2NC(=O)C2=C(O)[C@@]3(C)CCCN3N(Cc3cccc(F)c3F)C2=O)ccnc1Cl [Example 47] | 7.1 | – | 91
15 | COc1c(Cl)ncnc1-c1cc(C(F)(F)F)ccc1NC(=O)C1=C(O)[C@@]2(C)CCCN2N(Cc2cccc(F)c2F)C1=O [Example 49] | 12.9 | – | 85
16 | Cc1cc(S(=O)(=O)N(C)C)ccc1-c1cc(C(F)(F)F)ccc1NC(=O)C1=C(O)[C@@]2(C)CCCN2N(Cc2cccc(F)c2F)C1=O [Example 50] | 8.3 | – | 79
17 | COc1nc(C#N)ncc1-c1cc(C(F)(F)F)ccc1NC(=O)C1=C(O)[C@@]2(C)CCCN2N(Cc2ccc(OCCN3CCOCC3)c(F)c2F)C1=O [Example 55] | 15.3 | – | 85
18 | COc1nc(C#N)ncc1-c1cc(C(F)(F)F)ccc1NC(=O)C1=C(O)[C@@]2(C)CCCN2N(Cc2cccc(F)c2F)C1=O [Example 56] | 7.2 | – | 88
19 | COc1ccc(CN2C(=O)C(C(=O)Nc3cc(F)c(Br)c(F)c3)=C(O)[C@@]3(C)CCCN23)c(OC)c1 [Example 58] | – | – | 46
20 | COCCN(C)CCOc1c(-c2cccnc2)cc(CN2C(=O)C(C(=O)Nc3ccc(C(F)(F)F)cc3-c3cc(C(F)(F)F)ncn3)=C(O)C3(CCCC3)N2C)c(F)c1F [Example 440, 9-[[2,3-Difluoro-4-[2-[2-methoxyethyl(methyl)amino]ethoxy]-5-(3-pyridinyl)phenyl]methyl]-6-hydroxy-10-methyl-8-oxo-N-[4-(trifluoromethyl)-2-[6-(trifluoromethyl)pyrimidin-4-yl]phenyl]-9,10-diazaspiro[4.5]dec-6-ene-7-carboxamide] | – | 22.6 | –
21 | CN(C[C@H](O)[C@@H](O)[C@H](O)[C@H](O)CO)C(=O)COCCOCCOCCOCCOc1ccc(CN2C(=O)C(C(=O)Nc3ccc(C(F)(F)F)cc3-c3cc(C(F)(F)F)ncn3)=C(O)C3(CCCC3)N2C)c(F)c1F [Example 441, 7-[[2,3-Difluoro-4-[2-[2-[2-[2-[2-[methyl-[(2S,3R,4R,5R)-2,3,4,5,6-pentahydroxyhexyl]amino]-2-oxoethoxy]ethoxy]ethoxy]ethoxy]ethoxy]phenyl]methyl]-10-hydroxy-6-methyl-8-oxo-N-[4-(trifluoromethyl)-2-[6-(trifluoromethyl)pyrimidin-4-yl]phenyl]-6,7-diazaspiro[4.5]dec-9-ene-9-carboxamide] | – | 21.4 | –
22 | CN1N(Cc2ccc(NCCCN3CCOCC3)c(F)c2F)C(=O)C(C(=O)Nc2ccc(C(F)(F)F)cc2-c2cc(C(F)(F)F)ncn2)=C(O)C12CCCC2 [Example 446] | – | 11.1 | –
23 | CN1N(Cc2ccc(NCCN3CCOCC3)c(F)c2F)C(=O)C(C(=O)Nc2ccc(C(F)(F)F)cc2-c2cc(C(F)(F)F)ncn2)=C(O)C12CCCC2 [Example 447] | – | 15.8 | –

Further lines, with some results ahead:

Row | IC50 (human NaPi-IIb; read-out: IC50) [µM] | IC50 (human NaPi-IIb; [2]) [µM] | Compound | Rate of uptake inhibition (%) (1 μM) [1]
24 | 2.3 | – | C[C@]12CCCN1N(Cc1cccc(F)c1F)C(=O)C(C(=O)Nc1ccc(Br)c(C(F)(F)F)c1)=C2O [Example 30] | 71
25 | 6.1 | – | C[C@]12CCCN1N(Cc1cccc(F)c1)C(=O)C(C(=O)Nc1cc(F)c(Br)c(F)c1)=C2O [Example 36] | 80
26 | 8.5 | – | Cc1nc(NC(=O)C2=C(O)[C@@]3(C)CCCN3N(Cc3cccc(F)c3Br)C2=O)ccc1Br [Example 39] | 90
27 | 8.3 | – | C[C@]12CCCN1N(Cc1cccc(F)c1Br)C(=O)C(C(=O)Nc1cccc(Cl)c1F)=C2O [Example 43] | 79
28 | 16.3 | – | C[C@]12CCCN1N(Cc1cccc(F)c1F)C(=O)C(C(=O)Nc1ccc(C(F)(F)F)cc1-c1cccc(F)c1C#N)=C2O [Example 48] | 87
29 | 16 | – | C[C@]12CCCN1N(Cc1cccc(C#N)c1)C(=O)C(C(=O)Nc1ccc(C(F)(F)F)cc1-c1cnc(Cl)c(C#N)c1)=C2O [Example 51] | 72
30 | 9.5 | – | C[C@]12CCCN1N(Cc1ccc(OCCN3CCOCC3)c(F)c1F)C(=O)C(C(=O)Nc1ccc(C(F)(F)F)cc1-c1ncnc(C#N)c1Cl)=C2O [Example 53] | 72
31 | 2.3 | – | CSc1ncc(-c2nc(C(F)(F)F)ccc2NC(=O)C2=C(O)[C@@]3(C)CCCN3N(Cc3cccc(F)c3F)C2=O)cn1 [Example 54] | 72
32 | – | 18.9 | COCCOc1cc(NC(=O)C2=C(O)C3(CCCC3)N(C)N(Cc3ccc(OCCN(C)CCOC)c(F)c3F)C2=O)c(-c2ncnc(C(F)(F)F)c2C)cc1C(F)(F)F [Example 439, 7-[[2,3-Difluoro-4-[2-[2-methoxyethyl(methyl)amino]ethoxy]phenyl]methyl]-10-hydroxy-N-[5-(2-methoxyethoxy)-2-[5-methyl-6-(trifluoromethyl)pyrimidin-4-yl]-4-(trifluoromethyl)phenyl]-6-methyl-8-oxo-6,7-diazaspiro[4.5]dec-9-ene-9-carboxamide] | –
33 | – | 6.3 | COCCN(C)CCN(C)c1ccc(CN2C(=O)C(C(=O)Nc3ccc(C(F)(F)F)cc3-c3cc(C(F)(F)F)ncn3)=C(O)C3(CCCC3)N2C)c(F)c1F [Example 442] | –
34 | – | 8.9 | CCN(CCN(C)CCOC)c1ccc(CN2C(=O)C(C(=O)Nc3ccc(C(F)(F)F)cc3-c3cc(C(F)(F)F)ncn3)=C(O)C3(CCCC3)N2C)c(F)c1F [Example 443] | –
35 | – | 7.4 | CCCN(CCN(C)CCOC)c1ccc(CN2C(=O)C(C(=O)Nc3ccc(C(F)(F)F)cc3-c3cc(C(F)(F)F)ncn3)=C(O)C3(CCCC3)N2C)c(F)c1F [Example 444] | –
36 | – | 9.2 | COCCN(C)CCN(c1ccc(CN2C(=O)C(C(=O)Nc3ccc(C(F)(F)F)cc3-c3cc(C(F)(F)F)ncn3)=C(O)C3(CCCC3)N2C)c(F)c1F)C(C)C [Example 445] | –
